Values quoted from earlier work, collected in US8617560B2, “Peptides for vaccination against human CMV” (priority 1999, dated 2013).

Test system: cytomegaloviruses
Conditions: background statement, Lutz Schneider 1991

**Q.** With `O=C(O)P(=O)(O)O` [Foscarnet] as the molecule, how does the effect on cytomegaloviruses read?
**A.** virostatic effect
